Test results taken from patent US20260308157A1, “Pyrrolopyrazine Compounds, Preparation Thereof and Therapeutic Uses Thereof” (Sanofi, priority 2023, published 2026).

Legend:
Cellular ERK5 Activity = target: T1, Cellular ERK5 Activity (Homo sapiens, UniProt Q13164); experiment: Inhibition of Cellular ERK5 Activity (cell-based assay, MEF2 luciferase reporter in SN12C cells); settings: renal cancer cell line SN12C, doxycycline-induced MEK5DD, 0.3-10000 nM, mean where repeated
T1 construct: MEF2-response-element luciferase reporter (pGreenFire1)
Protocol: (§1) Two assays were performed to assess the ERK5 inhibitory activity of compounds of the Examples, a cell-based assay and a cell-free biochemical assay. Where repeat measurements were taken, the value reported is a mean average.
Inhibition of Cellular ERK5 Activity
The renal cancer cell line SN12C was transduced by a lentivirus pGreenFire1 MEF2 EF1 Neo (ref TR030VA-N) from SBI using standard infection protocol. pGreenFire1 MEF2 EF1 Neo allows the expression of luciferase gene under the control of minimal promoter with MEF2 transcriptional response elements. Cells harboring the reporter construct were selected by geneticin treatment. The selected cells were then transposed by a piggyback based plasmid pCM4007 allowing the expression of constitutively activated MEK5DD under control of TREG3 promoter, a doxycycline regulated promoter. Transposed cells were selected by puromycin treatment. Upon doxycycline treatment (1 μg/ml) MEK5DD was expressed. MEK5DD activates ERK5 that phosphorylates MEF2C protein. Activated MEF2C protein can bind to its transcriptional response elements. Then the luciferase is expressed. In a 96-well plate (96F nuncleon ref137101 thermofisher), 50,000 cells were inoculated in 142.5 μl of RPMI medium containing 10% fetal calf serum, 1% glutamine, and 1 μg/ml doxycycline. After 24 hours, compounds were added in 7.5 μl culture medium (with 2% DMSO to give a final concentration of 0.1%) in order to obtain the desired concentration (0.3-10000 nM). The luciferase activity was measured using the Kit Bright Glo Luminescent Cell Assay Cat E2610 (Promega) according to the manufacturer's protocol. Luminescence was determined using 0.2 second reading/well using a Tecan SPARK. IC50 values were calculated using XLFIT5 for Microsoft Excel using method 205. The IC50 values represent the concentration of compound which inhibits the measurable luminescence signal by 50% as compared to DMSO-treated control cells.

[1] = target: T2, activated catalytic domain of protein ERK5 (Homo sapiens, UniProt Q13164); experiment: Cell-Free Assay of ERK5 Inhibition (Time-Resolved Forster Resonance Energy Transfer); assay type: biochemical; settings: ERK5 4 nM, 1 mM ATP, 1 μM biotinylated 4EBP1 peptide, 30 min at 37° C.; TR-FRET; mean where repeated
T2 construct: purchased CarnaBiosciences #04-146
Protocol: as §1
Cell-Free Assay of ERK5 Inhibition
An assay was performed to measure the capacity of each compound to inhibit ERK5 enzymatic activity. Compound potency was evaluated by Time-Resolved Forster Resonance Energy Transfer (FRET system). The activated catalytic domain of protein ERK5 (CarnaBiosciences #04-146) was mixed at 4 nM with varying concentrations of compound and incubated for 30 minutes at room temperature. A mixture of 1 mM ATP and 1 μM biotinylated synthetic peptide was added (Biosyntan GmbH). This synthetic peptide represents amino acids 30-52 of Eukaryotic translation initiation factor 4E-binding protein 1 (see, e.g., the sequence under accession No. NP_004086.1) biotinylated at the N-terminus. After 30 minutes at 37° C., the peptide phosphorylation by ERK5 was measured by addition of FRET reagents consisting of 12.5 µg/ml Streptavidin-XL665, 1 nM Anti-P-4EBP1 antibody and 300 ng/ml Anti-rabbit-K antibody. Following 90 minutes at room temperature fluorescent signals were read on the Pherastar FSX multimod detector from BMG Labtech (Exc° 340 nm, Em1 620 nm, Em2 665 nm). The IC50 values represent the concentration of compound which inhibits the measurable fluorescence signal by […] as compared to the DMSO only control.

T2 sequence (Q13164 55-347 limits assumed): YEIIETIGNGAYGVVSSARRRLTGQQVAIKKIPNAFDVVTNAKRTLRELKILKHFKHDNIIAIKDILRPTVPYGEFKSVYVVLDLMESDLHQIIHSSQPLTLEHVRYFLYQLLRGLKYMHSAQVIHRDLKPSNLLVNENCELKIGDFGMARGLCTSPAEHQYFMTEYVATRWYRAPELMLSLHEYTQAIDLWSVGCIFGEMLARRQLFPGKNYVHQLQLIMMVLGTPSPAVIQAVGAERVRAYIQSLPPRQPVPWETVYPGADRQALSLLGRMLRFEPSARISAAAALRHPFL
T1 sequence (Q13164 whole entry): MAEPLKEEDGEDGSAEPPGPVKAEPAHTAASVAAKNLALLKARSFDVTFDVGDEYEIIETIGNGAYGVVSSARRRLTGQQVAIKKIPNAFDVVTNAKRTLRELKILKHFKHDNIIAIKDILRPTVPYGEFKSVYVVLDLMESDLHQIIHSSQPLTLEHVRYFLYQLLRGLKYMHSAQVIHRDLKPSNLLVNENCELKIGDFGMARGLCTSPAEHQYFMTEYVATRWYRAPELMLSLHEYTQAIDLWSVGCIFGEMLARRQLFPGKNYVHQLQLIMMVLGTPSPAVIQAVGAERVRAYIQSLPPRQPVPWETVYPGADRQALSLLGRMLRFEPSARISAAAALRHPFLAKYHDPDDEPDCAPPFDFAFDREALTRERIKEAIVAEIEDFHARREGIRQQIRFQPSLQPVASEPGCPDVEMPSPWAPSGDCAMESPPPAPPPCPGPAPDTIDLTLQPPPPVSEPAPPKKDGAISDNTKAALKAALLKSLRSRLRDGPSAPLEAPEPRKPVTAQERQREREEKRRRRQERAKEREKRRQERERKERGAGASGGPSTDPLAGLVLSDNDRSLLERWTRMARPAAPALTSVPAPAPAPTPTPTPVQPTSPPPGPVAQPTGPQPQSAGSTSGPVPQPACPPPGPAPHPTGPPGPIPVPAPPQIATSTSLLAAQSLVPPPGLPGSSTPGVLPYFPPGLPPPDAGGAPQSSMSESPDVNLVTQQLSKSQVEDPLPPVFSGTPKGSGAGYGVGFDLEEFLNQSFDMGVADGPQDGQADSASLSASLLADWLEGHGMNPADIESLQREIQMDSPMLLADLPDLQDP

Row | IC50 (Cellular ERK5 Activity) [nM] | IC50 [1] [nM] | Structure (SMILES)
1 | 226 | 25900 | O=C(c1ccc(OC(F)(F)F)cc1)N1CCC(c2c[nH]c3ncc(C4CCCCC4)nc23)CC1 [Example 8, [4-(2-Cyclohexyl-5H-pyrrolo[2,3-b]pyrazin-7-yl)-1-piperidyl]-[4-(trifluoromethoxy)phenyl]methanone]
2 | 112 | 76 | O=C(c1ccc(OC(F)(F)F)cc1)N1CCC(c2c[nH]c3ncc(C4CCN(C5CC5)CC4)nc23)CC1 [Example 11, [4-[2-(1-Cyclopropyl-4-piperidyl)-5H-pyrrolo[2,3-b]pyrazin-7-yl]-1-piperidyl]-[4-(trifluoromethoxy)phenyl]methanone]
3 | 140 | 578 | O=C(c1ccc(S(F)(F)(F)(F)F)cc1)N1CCC(c2c[nH]c3ncc(C4CCOCC4)nc23)CC1 [Example 17, [4-(pentafluoro-λ^6-sulfanyl)phenyl]-[4-(2-tetrahydropyran-4-yl-5H-pyrrolo[2,3-b]pyrazin-7-yl)-1-piperidyl]methanone]
4 | 34 | 330 | Nc1cc(S(F)(F)(F)(F)F)ccc1C(=O)N1CCC(c2c[nH]c3ncc(C4CCOCC4)nc23)CC1 [Example 18, [2-Amino-4-(pentafluoro-λ^6-sulfanyl)phenyl]-[4-(2-tetrahydropyran-4-yl-5H-pyrrolo[2,3-b]pyrazin-7-yl)-1-piperidyl]methanone]
5 | 201 | 282 | O=C(c1ccc(S(F)(F)(F)(F)F)cc1)N1CCC(c2c[nH]c3ncc(C4CCN(C5CC5)CC4)nc23)CC1 [Example 20, [4-[2-(1-Cyclopropyl-4-piperidyl)-5H-pyrrolo[2,3-b]pyrazin-7-yl]-1-piperidyl]-[4-(pentafluoro-λ^6-sulfanyl)phenyl]methanone]
6 | 279 | 1140 | O=C(c1ccc(C(F)(F)C(F)(F)F)cc1)N1CCC(c2c[nH]c3ncc(C4CCOCC4)nc23)CC1 [Example 22, [4-(1,1,2,2,2-Pentafluoroethyl)phenyl]-[4-(2-tetrahydropyran-4-yl-5H-pyrrolo[2,3-b]pyrazin-7-yl)-1-piperidyl]methanone]
7 | 149 | 624 | O=C(c1ccc(S(F)(F)(F)(F)F)cc1F)N1CCC(c2c[nH]c3ncc(C4CCOCC4)nc23)CC1 [Example 26, [2-Fluoro-4-(pentafluoro-λ^6-sulfanyl)phenyl]-[4-(2-tetrahydropyran-4-yl-5H-pyrrolo[2,3-b]pyrazin-7-yl)-1-piperidyl]methanone]
8 | 5430 | 5560 | Nc1cc(OC(F)(F)F)ccc1C(=O)N1CCC(c2c[nH]c3ncc(NC4COC4)nc23)CC1 [Example 27, [2-amino-4-(trifluoromethoxy)phenyl]-[4-[2-(oxetan-3-ylamino)-5H-pyrrolo[2,3-b]pyrazin-7-yl]-1-piperidyl]methanone]
9 | 190 | 405 | Nc1cc(OC(F)(F)F)ccc1C(=O)N1CCC(c2c[nH]c3ncc(O[C@@H]4CCOC4)nc23)CC1 [Example 28, [2-amino-4-(trifluoromethoxy)phenyl]-[4-[2-[(3R)-tetrahydrofuran-3-yl]oxy-5H-pyrrolo[2,3-b]pyrazin-7-yl]-1-piperidyl]methanone]
10 | 37 | 307 | Nc1cc(OC(F)(F)F)ccc1C(=O)N1CCC(c2c[nH]c3ncc(NC4CCOCC4)nc23)CC1 [Example 39, [2-amino-4-(trifluoromethoxy)phenyl]-[4-[2-(tetrahydropyran-4-ylamino)-5H-pyrrolo[2,3-b]pyrazin-7-yl]-1-piperidyl]methanone]
11 | 180 | 1010 | O=C(c1ccc(OC(F)(F)F)cc1)N1CCC(c2c[nH]c3ncc(N4CCOCC4)nc23)CC1 [Example 40, [4-(2-morpholino-5H-pyrrolo[2,3-b]pyrazin-7-yl)-1-piperidyl]-[4-(trifluoromethoxy)phenyl]methanone]
12 | 308 | > 30000 | O=C(c1ccc(OC(F)(F)F)cc1)N1CCC(c2c[nH]c3ncc(N4CCC(F)(F)CC4)nc23)CC1 [Example 41, [4-[2-(4,4-difluoro-1-piperidyl)-5H-pyrrolo[2,3-b]pyrazin-7-yl]-1-piperidyl]-[4-(trifluoromethoxy)phenyl]methanone]

The remaining lines, values behind:

Row | Structure (SMILES) | IC50 (Cellular ERK5 Activity) [nM] | IC50 [1] [nM]
13 | Nc1cc(OC(F)(F)F)ccc1C(=O)N1CCC(c2c[nH]c3ncc(C4CCCCC4)nc23)CC1 [Example 9, [2-Amino-4-(trifluoromethoxy)phenyl]-[4-(2-cyclohexyl-5H-pyrrolo[2,3-b]pyrazin-7-yl)-1-piperidyl]methanone] | 156 | 2150
14 | Nc1cc(OC(F)(F)F)ccc1C(=O)N1CCC(c2c[nH]c3ncc(C4CCN(C5CC5)CC4)nc23)CC1 [Example 10, [2-Amino-4-(trifluoromethoxy)phenyl]-[4-[2-(1-cyclopropyl-4-piperidyl)-5H-pyrrolo[2,3-b]pyrazin-7-yl]-1-piperidyl]methanone] | 28 | 23
15 | CN1CCC(c2cnc3[nH]cc(C4CCN(C(=O)c5ccc(S(F)(F)(F)(F)F)cc5)CC4)c3n2)CC1 [Example 15, [4-[2-(1-Methyl-4-piperidyl)-5H-pyrrolo[2,3-b]pyrazin-7-yl]-1-piperidyl]-[4-(pentafluoro-λ^6-sulfanyl)phenyl]methanone] | 96 | 98
16 | CN1CCC(c2cnc3[nH]cc(C4CCN(C(=O)c5ccc(S(F)(F)(F)(F)F)cc5N)CC4)c3n2)CC1 [Example 16, [2-Amino-4-(pentafluoro-λ^6-sulfanyl)phenyl]-[4-[2-(1-methyl-4-piperidyl)-5H-pyrrolo[2,3-b]pyrazin-7-yl]-1-piperidyl]methanone] | 25 | 38
17 | Nc1cc(S(F)(F)(F)(F)F)ccc1C(=O)N1CCC(c2c[nH]c3ncc(C4CCN(C5CC5)CC4)nc23)CC1 [Example 19, [2-Amino-4-(pentafluoro-λ^6-sulfanyl)phenyl]-[4-[2-(1-cyclopropyl-4-piperidyl)-5H-pyrrolo[2,3-b]pyrazin-7-yl]-1-piperidyl]methanone] | 94 | 176
18 | O=C(c1ccc(OC2CC2)cc1)N1CCC(c2c[nH]c3ncc(C4CCOCC4)nc23)CC1 [Example 21, [4-(Cyclopropoxy)phenyl]-[4-(2-tetrahydropyran-4-yl-5H-pyrrolo[2,3-b]pyrazin-7-yl)-1-piperidyl]methanone] | 352 | 359
19 | O=C(C1CCCCC1)N1CCC(c2c[nH]c3ncc(C4CCOCC4)nc23)CC1 [Example 23, Cyclohexyl-[4-(2-tetrahydropyran-4-yl-5H-pyrrolo[2,3-b]pyrazin-7-yl)-1-piperidyl]methanone] | 4800 | 13300
20 | Nc1cc(OC(F)(F)F)ccc1C(=O)N1CCC(c2c[nH]c3ncc(O[C@H]4CCOC4)nc23)CC1 [Example 29, [2-amino-4-(trifluoromethoxy)phenyl]-[4-[2-[(3S)-tetrahydrofuran-3-yl]oxy-5H-pyrrolo[2,3-b]pyrazin-7-yl]-1-piperidyl]methanone] | 215 | 399
21 | CN1CCN(c2cnc3[nH]cc(C4CCN(C(=O)c5ccc(OC(F)(F)F)cc5)CC4)c3n2)CC1 [Example 31, [4-[2-(4-methylpiperazin-1-yl)-5H-pyrrolo[2,3-b]pyrazin-7-yl]-1-piperidyl]-[4-(trifluoromethoxy)phenyl]methanone, formic acid] | 86 | 189
22 | O=C(c1ccc(OC(F)(F)F)cc1)N1CCC(c2c[nH]c3ncc(NC4CCOCC4)nc23)CC1 [Example 38, [4-[2-(tetrahydropyran-4-ylamino)-5H-pyrrolo[2,3-b]pyrazin-7-yl]-1-piperidyl]-[4-(trifluoromethoxy)phenyl]methanone] | 166 | 993
